Species on record: Rattus norvegicus
Assay: Open TG-GATES - Regimen: Single
Assay type: toxicity, organism-based, Sprague-Dawley
Design: regimen Single, gender Male, age 6 weeks
Details: in vivo, po, 150 mg/kg, route gavage, dose level Middle; for APTT / Bas / Eos / Fbg / Hb / Ht / Lym / MCH / MCHC / MCV / Mono / Neu / PT / Plat / RBC / Ret / WBC: tissue Blood; for KIDNEY_L / KIDNEY_R / KIDNEY_TOTAL: tissue Kidney; for LIVER: tissue Liver; for A/G / ALP / ALT / AST / BUN / CRE / Ca / Cl / DBIL / GLC / IP / K / LDH / Na / PL / RALB / TBIL / TC / TG / TP / gamma-GTP: tissue Plasma

CN1C(=O)OC(C)(C)C1=O [TRIMETHADIONE]
TERMINAL_BW (3 h): 208.1 g | APTT (3 h): 15.9 s | Bas (3 h): 0% | Eos (3 h): 0.6% | Fbg (3 h): 262.2 mg/dL | Hb (3 h): 13.4 g/dL | Ht (3 h): 40.4% | Lym (3 h): 78.8% | MCH (3 h): 21.4 pg | MCHC (3 h): 33.2% | MCV (3 h): 64.6 fL | Mono (3 h): 2.4% | Neu (3 h): 17.2% | PT (3 h): 13.5 s | Plat (3 h): 114.9 x10_4/uL | RBC (3 h): 625.4 x10_4/ul | Ret (3 h): 7.7% | WBC (3 h): 81.5 x10_2/uL | KIDNEY_L (3 h): 0.9 g | KIDNEY_R (3 h): 0.9 g | KIDNEY_TOTAL (3 h): 1.8 g | LIVER (3 h): 9.1 g | A/G (3 h): 0.9 | ALP (3 h): 1472.2 IU/L | ALT (3 h): 38.4 IU/L | AST (3 h): 70.6 IU/L | BUN (3 h): 10 mg/dL | CRE (3 h): 0.2 mg/dL | Ca (3 h): 10.6 mg/dL | Cl (3 h): 108 meq/L | DBIL (3 h): 0.004 mg/dL | GLC (3 h): 177.8 mg/dL | IP (3 h): 8.3 mg/dL | K (3 h): 4.2 meq/L | LDH (3 h): 106 IU/L | Na (3 h): 141 meq/L | PL (3 h): 144.4 mg/dL | RALB (3 h): 2.5 g/dL | TBIL (3 h): 0.056 mg/dL | TC (3 h): 75 mg/dL | TG (3 h): 82 mg/dL | TP (3 h): 5.3 g/dL | gamma-GTP (3 h): 1 IU/L | TERMINAL_BW (6 h): 209 g | APTT (6 h): 16.3 s | Bas (6 h): 0.2% | Eos (6 h): 1% | Fbg (6 h): 267 mg/dL | Hb (6 h): 13.4 g/dL | Ht (6 h): 40.1% | Lym (6 h): 80.8% | MCH (6 h): 21.7 pg | MCHC (6 h): 33.3% | MCV (6 h): 65.3 fL | Mono (6 h): 2.4% | Neu (6 h): 15.2% | PT (6 h): 13.8 s | Plat (6 h): 126.8 x10_4/uL | RBC (6 h): 614.2 x10_4/ul | Ret (6 h): 8.4% | WBC (6 h): 94.5 x10_2/uL | KIDNEY_L (6 h): 0.9 g | KIDNEY_R (6 h): 0.9 g | KIDNEY_TOTAL (6 h): 1.8 g | LIVER (6 h): 8.6 g | A/G (6 h): 0.9 | ALP (6 h): 1642.2 IU/L | ALT (6 h): 36.2 IU/L | AST (6 h): 72.2 IU/L | BUN (6 h): 8.6 mg/dL | CRE (6 h): 0.2 mg/dL | Ca (6 h): 10.6 mg/dL | Cl (6 h): 107.4 meq/L | DBIL (6 h): 0.004 mg/dL | GLC (6 h): 175.8 mg/dL | IP (6 h): 8.9 mg/dL | K (6 h): 4.3 meq/L | LDH (6 h): 79.4 IU/L | Na (6 h): 140.6 meq/L | PL (6 h): 139.4 mg/dL | RALB (6 h): 2.4 g/dL | TBIL (6 h): 0.062 mg/dL | TC (6 h): 76 mg/dL | TG (6 h): 54.6 mg/dL | TP (6 h): 5.2 g/dL | gamma-GTP (6 h): 1 IU/L | TERMINAL_BW (9 h): 204.4 g | APTT (9 h): 17.8 s | Bas (9 h): 0% | Eos (9 h): 1% | Fbg (9 h): 276 mg/dL | Hb (9 h): 13.2 g/dL | Ht (9 h): 39.8% | Lym (9 h): 76% | MCH (9 h): 21.7 pg | MCHC (9 h): 33.2% | MCV (9 h): 65.5 fL | Mono (9 h): 2.2% | Neu (9 h): 20.8% | PT (9 h): 14 s | Plat (9 h): 119.5 x10_4/uL | RBC (9 h): 608.8 x10_4/ul | Ret (9 h): 8.3% | WBC (9 h): 84 x10_2/uL | KIDNEY_L (9 h): 0.9 g | KIDNEY_R (9 h): 0.9 g | KIDNEY_TOTAL (9 h): 1.8 g | LIVER (9 h): 7.8 g | A/G (9 h): 0.9 | ALP (9 h): 1417.8 IU/L | ALT (9 h): 33.8 IU/L | AST (9 h): 72.2 IU/L | BUN (9 h): 7.2 mg/dL | CRE (9 h): 0.2 mg/dL | Ca (9 h): 10.3 mg/dL | Cl (9 h): 109.8 meq/L | DBIL (9 h): 0 mg/dL | GLC (9 h): 164.4 mg/dL | IP (9 h): 9.9 mg/dL | K (9 h): 3.9 meq/L | LDH (9 h): 118.2 IU/L | Na (9 h): 142.4 meq/L | PL (9 h): 137.4 mg/dL | RALB (9 h): 2.5 g/dL | TBIL (9 h): 0.066 mg/dL | TC (9 h): 74.4 mg/dL | TG (9 h): 32.4 mg/dL | TP (9 h): 5.3 g/dL | gamma-GTP (9 h): 1 IU/L | TERMINAL_BW (24 h): 217.7 g | APTT (24 h): 20.8 s | Bas (24 h): 0% | Eos (24 h): 1% | Fbg (24 h): 279.8 mg/dL | Hb (24 h): 13.8 g/dL | Ht (24 h): 41.1% | Lym (24 h): 78.2% | MCH (24 h): 21.7 pg | MCHC (24 h): 33.5% | MCV (24 h): 64.9 fL | Mono (24 h): 2.6% | Neu (24 h): 18% | PT (24 h): 13.4 s | Plat (24 h): 112.6 x10_4/uL | RBC (24 h): 634.2 x10_4/ul | Ret (24 h): 6.8% | WBC (24 h): 104 x10_2/uL | KIDNEY_L (24 h): 0.9 g | KIDNEY_R (24 h): 0.9 g | KIDNEY_TOTAL (24 h): 1.9 g | LIVER (24 h): 9.6 g | A/G (24 h): 0.9 | ALP (24 h): 2022.8 IU/L | ALT (24 h): 50 IU/L | AST (24 h): 81 IU/L | BUN (24 h): 15.4 mg/dL | CRE (24 h): 0.2 mg/dL | Ca (24 h): 10.7 mg/dL | Cl (24 h): 104.6 meq/L | DBIL (24 h): 0.006 mg/dL | GLC (24 h): 171.6 mg/dL | IP (24 h): 7.9 mg/dL | K (24 h): 4.3 meq/L | LDH (24 h): 116.2 IU/L | Na (24 h): 143 meq/L | PL (24 h): 148.2 mg/dL | RALB (24 h): 2.6 g/dL | TBIL (24 h): 0.056 mg/dL | TC (24 h): 76.4 mg/dL | TG (24 h): 83 mg/dL | TP (24 h): 5.6 g/dL | gamma-GTP (24 h): 1 IU/L
